How the values were obtained:
[1] = Friction or pulverization stability (automatic mortar grinder, PXRD); format: physicochemical; settings: 50 mg pulverized one hour, pestle 124 g, 50 rpm; PXRD peak height ratio
Method: In an automatic mortar grinder (weight of pestle: 124 g, 50 rpm), 50 mg of a sample (the crystalline polymorphic form A or the crystalline polymorphic form B) was put, the sample was pulverized over one hour and sampled. A PXRD analysis of the sample was conducted to determine the change of a degree of crystallization. The degree of crystallization after one hour of the crystalline polymorphic form A was 46.8%, and that of the crystalline polymorphic form B was 22.2%. Thus, the crystalline polymorphic form A was stable to pulverization. Incidentally, the degree of crystallization was determined based on an intensity ratio (peak height) of a characteristic diffraction peak in the PXRD spectrum (for the crystalline polymorphic form A, a diffraction peak at 2θ=17.1°; for the crystalline polymorphic form B, a diffraction peak at 2θ=16.2°), and the change rate of crystallization degree was calculated.

[2] = Thermal stability test (storage at 100° C., purity by HPLC); format: physicochemical; settings: in air; for colour of crystal with the passage of time / colour of crystal on the seventh day after storage: 100° C.; for colour of crystal with the passage of time: after seventh day up to 28 days
Method: The crystalline polymorphic form A obtained in Example 1 and the crystalline polymorphic form B obtained in Comparative Example 1 were each stored at a temperature of 100° C. for 28 days (storage condition: in a thermostatic bath, in air). During the storage, the crystals were sampled every predetermined time, and the purity of 15β-hydroxy-osaterone acetate in each sample was measured by HPLC.

[3] = Stability (stir-suspension) in mixed solvents; format: physicochemical; settings: for proportion maintaining crystal structure: stirred; for stability of crystal form to the solvents commonly used in production of preparations: acetone/heptane, acetone/water, ethanol/water mixed solvents
Method: To (1) an acetone/heptane mixed solvent (1:1), (2) an acetone/water mixed solvent (1:1), or (3) an ethanol/water mixed solvent (1:1) was added the crystalline polymorphic form A, and the mixture was stirred. One day after, the crystalline polymorphic form A maintained a crystal structure thereof at a proportion of 98% in the mixed solvent (1), 99% in the mixed solvent (2), and 100% in the mixed solvent (3). Three days after, the crystalline polymorphic form A maintained a crystal structure thereof at a proportion of 95% in the mixed solvent (1), 98% in the mixed solvent (2), and 99% in the mixed solvent (3). Even seven days after, the crystalline polymorphic form A maintained a crystal structure thereof at a proportion of 95% in the mixed solvent (1), 98% in the mixed solvent (2), and 99% in the mixed solvent (3).

[4] = Pharmacokinetics in dog (oral capsule, plasma LC-MS/MS); format: in vivo; settings: female dogs, 0.3 mg/kg oral, gelatin capsule with lactose hydrate, plasma 15β-hydroxy-osaterone acetate
Method: For each sample of the crystalline polymorphic form A obtained in Example 1 and the crystalline polymorphic form B obtained in Comparative Example 1, the sample was mixed at a dose of 0.3 mg/kg with 100 mg of lactose hydrate (manufactured by DFE Pharma), and the mixture was filled with a gelatin capsule (manufactured by Matsuya Corporation, MM, size: No. 2) to prepare a capsule preparation. The capsule preparation containing the crystalline polymorphic form A was orally administered to a first female dog group (5 dogs), and the capsule preparation containing the crystalline polymorphic form B was orally administered to a second female dog group (5 dogs). The blood was sampled from each dog 0.5, 1, 2, 3, 4, 5, 7, 10, 24, 48, and 72 hours after oral administration, and the blood plasma from each sample was obtained by centrifugation. The concentration of 15β-hydroxy-osaterone acetate in each blood plasma was measured by an LC-MS/MS (liquid chromatography-tandem mass spectrometry) method, and a time to reach a maximum plasma concentration (Tmax) and a maximum plasma concentration (Cmax) were calculated.

[5] = Angle of repose (powder flow property); format: physicochemical; settings: for Angle of repose (°) Average: average of three measurements; for Degree of flow property: evaluated based on Japanese Pharmacopoeia, General Information (Powder Flow); for Angle of repose (°) First time: first measurement; for Angle of repose (°) Second time: second measurement; for Angle of repose (°) Third time: third measurement
Method: Probably due to being the prism crystal, the crystalline polymorphic form A of 15β-hydroxy-osaterone acetate is characterized by a high powder flow property and a small angle of repose. For example, the powdery crystalline polymorphic form A of 15β-hydroxy-osaterone acetate has an average angle of repose of, for example, about 30 to 38°, preferably about 32 to 37° (e.g., about 33 to 37°), and more preferably about 34 to 36°, when the angle of repose is measured three times in accordance with methods for angle of repose described in The Japanese Pharmacopoeia. Incidentally, the crystalline polymorphic form B of 15β-hydroxy-osaterone acetate has an average angle of repose of, for example, about 42 to 52° (e.g., about 44 to 50°, particularly about 45 to 47°) by the same measurement as above. The angle of repose can be evaluated as the following manner. A funnel (a glass funnel having a funnel diameter of 50 mm, a stem internal diameter of 7 mm, and a stem length of 40 mm) is provided, the height from the lower end of the funnel to a base surface (an upper surface of a cylinder having a diameter of 1.5 cm) is fixed to 4.5 cm, an excess amount of a powdery sample is dropped onto the center of the cylinder surface (the base surface) through the funnel, and an incident angle of the resulting accumulated powder is measured.
The height from a lower end of a funnel to a base surface (an upper surface of a cylinder having a diameter of 1.5 cm) was fixed to 4.5 cm, an excess amount of a powdery sample was dropped onto the center of the cylinder surface (the base surface) through the funnel. An incident angle (an angle of repose) of the resulting accumulated powder was measured. This operation was repeated three times, and the average value of the angle of repose was calculated.
In Table 1, the degree of flow property is evaluated based on Japanese Pharmacopoeia, General Information (G2 Solid-state Properties, Powder Flow), which is described about the relationship between the angle of repose and the flow property.

Structure (SMILES)	degree of crystallization after one hour [1]	colour of crystal with the passage of time [2]	colour of crystal on the seventh day after storage [2]	stability of crystal form to the solvents commonly used in production of preparations [3]	Tmax (time to reach a maximum plasma concentration) [4]	Angle of repose (°) Average [5]	Degree of flow property [5]	Angle of repose (°) First time [5]	Angle of repose (°) Second time [5]	Angle of repose (°) Third time [5]	also measured
CC(=O)O[C@]1(C(C)=O)C[C@@H](O)[C@H]2[C@@H]3C=C(Cl)C4=CC(=O)OC[C@]4(C)[C@H]3CC[C@@]21C [Crystalline polymorphic form A, 17α-acetoxy-6-chloro-15β-hydroxy-2-oxapregna-4,6-diene-3,20-dione]	46.8%	maintained light brown	light brown	highly stable	13.8 ± 8.33 h	35 °	Good	36 °	33 °	38 °	thermal stability (active ingredient content / purity of 15β-hydroxy-osaterone acetate by HPLC) ([2]; stored at 100° C. for 28 days, thermostatic bath, FIG. 5): only a few decreases in active ingredient content; proportion maintaining crystal structure ([3]; acetone/heptane mixed solvent (1:1), one day after): 98%; proportion maintaining crystal structure ([3]; acetone/heptane mixed solvent (1:1), seven days after): 95%; proportion maintaining crystal structure ([3]; acetone/heptane mixed solvent (1:1), three days after): 95%; proportion maintaining crystal structure ([3]; acetone/water mixed solvent (1:1), one day after): 99%; proportion maintaining crystal structure ([3]; acetone/water mixed solvent (1:1), seven days after): 98%; proportion maintaining crystal structure ([3]; acetone/water mixed solvent (1:1), three days after): 98%; proportion maintaining crystal structure ([3]; ethanol/water mixed solvent (1:1), one day after): 100%; proportion maintaining crystal structure ([3]; ethanol/water mixed solvent (1:1), seven days after): 99%; proportion maintaining crystal structure ([3]; ethanol/water mixed solvent (1:1), three days after): 99%; Cmax (maximum plasma concentration) [4]: 0.0842 ± 0.02906 µg/mL
CC(=O)O[C@]1(C(C)=O)C[C@@H](O)[C@H]2[C@@H]3C=C(Cl)C4=CC(=O)OC[C@]4(C)[C@H]3CC[C@@]21C [Crystalline polymorphic form B, 17α-acetoxy-6-chloro-15β-hydroxy-2-oxapregna-4,6-diene-3,20-dione, reference compound]	22.2%	turned brown	light brown	unstable	5.8 ± 1.60 h	46 °	Poor	51 °	39 °	48 °	Cmax ([4]; female, dog, plasma, po, 0.3 mg/kg, read-out: Cmax (maximum plasma concentration)): 0.128 ± 0.0192 µg/mL
